Marks after values point to notes of the source that are not given here.
Columns and labels:
Caco2 = Caco2 permeability; type: in vitro ADME
[1] = Pharmacokinetics in rats after single po and iv dosing; conditions: for AUC(0-inf): plasma
Caco2 permeability = type: in vitro ADME; conditions: human, Caco-2
[2] = Stability in rat liver microsomes; type: in vitro ADME
[3] = rats, po, dose normalized to 30 mg/kg

Row | Structure (SMILES) | Caco2 permeability (Caco2) | solubility (Solubility) | clearance ([1]; rat, in vivo, iv, 30 mg/kg) [mL/min/kg] | BA ([1]; rats, 30 mg/kg, po) [%] | AUC (0-∞) (dose normalized to 30 mg/kg) [1, 3] | Cmax (dose normalized to 30 mg/kg) [1, 3] | Papp (Caco2 permeability) [×10⁻⁶ cm/s] | remaining at 0.25 h [2] [%] | half-life ([1]; rat, in vivo, iv, 30 mg/kg) [min] | AUC ([1]; rat, in vivo, po, 30 mg/kg) [ng·h/mL] | Cmax ([1]; rat, in vivo, po, 30 mg/kg) [ng/mL] | half-life ([1]; rat, in vivo, po, 30 mg/kg) [min] | AUC(0-inf) ([1]; rat, iv, 30 mg/kg) [ng·h/mL] | AUC(0-inf) ([1]; rat, po, 30 mg/kg) [ng·h/mL]
1 | CCCCN1C(=O)C(CC2CCCCC2)NC(=O)C12CCN(Cc1ccc(Oc3ccccc3)cc1)CC2.Cl (centres unmarked) [Compound 1a] | not detected | less than 5 μM | 113 | 1.9 | 74.4^a ng h/m | 16.7^a ng/mL | – | – | – | – | – | – | – | –
2 | CCCCN1C(=O)[C@H](CC2CCCCC2)NC(=O)C12CCN(Cc1ccc(Oc3ccc(C(=O)O)cc3)cc1)CC2.Cl [Compound 12, 4-(4-{[(3S)-1-butyl-3-(cyclohexylmethyl)-2,5-dioxo-1,4,9-triaza-spiro[5.5]undec-9-yl]methyl}phenoxy)benzoic acid hydrochloride] | – | 26 µM | 16 | 34.1 | – | – | 26.4 | 22 | 11.1 | 10500 | 7200 | 48.4 | 3090 | 10500

From PMC7553643 (Bioorganic & medicinal chemistry letters, 2009)
